Measurements: patent US20050136492A1, “Affinity labeling of enzymes for detection of enzyme activity level in living cells” (priority 2001, published 2005)
Several values for one entry are separate records, joined by “and”; a condition that tells them apart may be missing. Equal values may be shown once.

How the values were obtained:
[1] = test system: HL-60 cells; test: Labeling of CPT-treated HL-60 cells with FLISP (FFCK, FLCK) and FLICA (FAM-VAD-FMK, SR-VAD-FMK) reagents, by LSC or fluorescence microscopy; type: cell-based, Human; details: for binding of the ligand by cells treated with CPT vs untreated (control) cells: HL-60, 3 h CPT, combined with PI; for fluorescence of labeled cells (appearance): dual labeling with SR-VAD-FMK, CPT-treated HL-60, microscopy/LSC imaging
Description: (§1) Preparation of reagents: Fluorescent inhibitors of serine proteases (FLISP) reagents, 5(6)-Carboxyfluoresceinyl-L-phenylalanylchloromethyl ketone (FFCK) and 5(6)-carboxyfluoresceinyl-L-leucylchloromethyl ketone (FLCK) were dissolved initially in dimethyl sulfoxide (DMSO; Sigma) to yield a 10 mM concentration. Aliquots were made from this stock solution and stored frozen at −20° C. protected from light. This reagent stock was then diluted directly into the cell culture media to give a 1× working reagent concentration of 10 μM. Dilution of the reagent into aqueous (cell culture) media is done just prior to cell exposure to preserve the labile chloromethyl ketone reactivity of FLISP reagent.
Fluorescent inhibitors of caspases (FLICA) reagents, namely the fluorescein labeled VAD-FMK (FAM-VAD-FMK) and sulforhodamine labeled VAD-FMK (SR-VAD-FMK) (Immunochemistry Technologies; Bloomington, Minn.) were both designed to detect the presence of active caspases within apoptotic cells. These inhibitors were dissolved in DMSO to obtain a 150× concentrated stock solution. Aliquots of these solutions were stored at −20° C. in the dark. Prior to use, a 30× working solution of either FAM-VAD-FMK or SR-VAD-FMK was prepared by diluting the stock solution 1:5 in phosphate buffered saline (PBS) and mixing until the solution become clear. The 30× working solution was diluted 1:30 cell culture media to give a final 1× working reagent concentration of 10 μM.
Cells: Human promyelocytic leukemic HL-60 cells were obtained from American Type Culture Collection (ATCC; Rockville, Md.). They were cultured in 25 mL FALCON flasks (Becton Dickinson Co., Franklin Lakes, N.J.) using RPMI 1640 supplemented with 10% fetal calf serum, 100 units/mL penicillin, […] and 2 mM L-glutamine (all from Gibco/BRL Life Technologies, Inc., Grand Island, N.Y.) in a humidified incubator set to maintain 37.5° C. and 5% CO2 as previously described (Bedner et al., Exp Cell Res., 2000, 259:308-313; Smolewski et al., Cytometry, 2001, 44:73-82). At the onset of experiments, there were fewer than 5×10^5 cells/ml in culture. To induce apoptosis the cells were treated with 0.15 μM DNA topoisomerase I inhibitor camptothecin (CPT; Sigma Chemical Co., St. Louis, Mo.) for 3 hours.
Cell staining and fluorescence measurement by LSC: The HL-60 cells from the untreated or CPT treated cultures were centrifuged (200 g, 5 min) and resuspended in PBS at approximately 10^4 cells per 5 mL volume. Cells were then attached electrostatically to microscope slides as described before (Bedner et al., Exp Cell Res., 2000, 259:308-313; Smolewski et al., Cytometry, 2001, 44:73-82). The attachment was achieved by the incubation (15 min) of cells suspended in serum-free PBS in shallow (<1 mm depth; 1.5×1.5 cm) wells on horizontally placed microscope slides that were rinsed in 100% ethanol and air dried prior to use, at 100% humidity. The electrostatically attached cells remain viable, exclude such dyes as trypan blue and propidium iodide (PI), and have unchanged morphology for several hours (Bedner et al., Exp Cell Res., 2000, 259:308-313). After the cells became attached, PBS was removed from the wells and was replaced by 150 μL of the culture medium containing 10% FCS. FLISP staining solutions were prepared by diluting 5 μL of the 10 mM FFCK or FLCK stock solution into 5 mL of culture medium yielding a final FLISP concentration 10 μM. […]

[2] = test system: HL-60 cells; test: Pretreatment of HL-60 cells with unlabeled protease inhibitors during CPT induction of apoptosis; subsequent binding of FAM-VAD-FMK, FFCK or FLCK measured by LSC; type: cell-based, Human; details: HL-60, 0.15 μM CPT 3 h, pretreatment with unlabeled inhibitor (Z-VAD-FMK 50 μM); probe 10 μM; mean ± SE of three experiments
Description: as §1
Fluorescent inhibitors of caspases (FLICA) reagents, namely the fluorescein labeled VAD-FMK (FAM-VAD-FMK) and sulforhodamine labeled VAD-FMK (SR-VAD-FMK) (Immunochemistry Technologies; Bloomington, Minn.) were both designed to detect the presence of active caspases within apoptotic cells. These inhibitors were dissolved in DMSO to obtain a 150× concentrated stock solution. Aliquots of these solutions were stored at −20° C. in the dark. […]
Cell staining and fluorescence measurement by LSC: The HL-60 cells from the untreated or CPT treated cultures were centrifuged (200 g, 5 min) and resuspended in PBS at approximately 10^4 cells per 5 mL volume. […]

5(6)-Carboxyfluoresceinyl-L-phenylalanylchloromethyl ketone [FFCK]
binding of the ligand by cells treated with CPT vs untreated (control) cells [1]: induced binding | fluorescence of labeled cells (appearance) [1]: strong

5(6)-Carboxyfluorescyl-L-leucylchloromethyl ketone [FLCK]
binding of the ligand by cells treated with CPT vs untreated (control) cells [1]: induced binding | fluorescence of labeled cells (appearance) [1]: faint | greater fluorescence intensity of FLCK labeled cells compared to cells labeled with FFCK ([1]; identical settings of photomultiplier sensitivity): approximately 60%

N-tosyl-L-phenylalanine chloromethyl ketone [TPCK]
percent decrease in frequency of FLCK labeled cells vs cells treated with CPT without unlabeled inhibitor [2]: 38.9% and 38.9 ± 1.7%
